Experimental data from patent US20260216115A1, “TRETINOIN-CONTAINING COMPOSITION, PREPARATION METHOD AND USE THEREOF” (NANJING INDETEK LABORATORY CO., LTD., priority 2022, published 2026).

Assays:
[1] = Complex formation at different molar ratios, state at room temperature; type: physicochemical
Method: Referring to the preparation process in 1.2.1, complexes were prepared using tretinoin and diethanolamine at different ratios (as shown in the table below).
Referring to the preparation process in 1.2 in Example 1, diethanolamine was replaced with triethanolamine, and complexes were prepared using tretinoin and triethanolamine at different ratios (as shown in the table below).

[2] = Water solubility/water dilution stability of tretinoin complexes; type: physicochemical; conditions: water added until the solution appeared turbid
Method: Weighing was performed, and calculation was performed to obtain the limiting water content of the complexes.

[3] = Dynamic moisture sorption (DVS) with PLM before and after; type: physicochemical
[4] = Differential scanning calorimetry (DSC, mDSC); type: physicochemical
[5] = Crystallization induction: cooling test; type: physicochemical; conditions: 3 days
Method: About 40 mg of 2 [DEA][RA] was dissolved in the respective solvent at 50° C., a clear solution was obtained and divided equally in 2 groups. After cooling according to the respective procedure, and equilibrating at low temperature for 3 days, no solid form substance was obtained.

[6] = Liquid nitrogen freezing test; type: physicochemical; conditions: frozen about 1 min in liquid nitrogen, rewarmed to room temperature (about 22° C.)
Method: After freezing for about 1 min, the sample was taken out, yielding a reddish-brown transparent solid (hard and brittle). […] The experimental process was as follows: freezing with the spoon, fragmenting, and then melting

[7] = Anti-solvent addition test; type: physicochemical; conditions: room temperature, about 4 days
Method: The corresponding volume of good solvent was added to an appropriate amount of 2 [DEA][RA] to obtain a clear solution. If there were two corresponding anti-solvents, the clear solution was divided into two parts. At room temperature (about 22° C.), the anti-solvent was slowly added to the clear solution with stirring until solid precipitation was observed (the maximum volume of anti-solvent added was 1.5 mL). If the solid precipitation was observed, the addition of anti-solvent was stopped. After about 4 days of stirring at room temperature, a clear solution was obtained or oiling-out phenomenon was observed, without solid form substance obtained.

[8] = Solubility of the complex in different medium systems (oily mediums); type: physicochemical
Description: 6.1 Study on Solubility of the Tretinoin-Alcoholamine Compound Complex in Different Medium Systems

[9] = Compatibility of gel matrix and complex; type: physicochemical; conditions: 0.17% (0.1% in terms of RA) added to the Carbopol 980 gel matrix
[10] = 2020 edition of Chinese Pharmacopoeia (Part II); cited from earlier work
[11] = tretinoin-diethanolamine complexes, molar ratio [DEA]:[RA] 2:1 to 10:1
[12] = tretinoin-triethanolamine complexes, molar ratio TEA:RA 7:1 to 10:1

CC1=C(/C=C/C(C)=C/C=C/C(C)=C/C(=O)O)C(C)(C)CCC1.CC1=C(/C=C/C(C)=C/C=C/C(C)=C/C(=O)O)C(C)(C)CCC1.OCCNCCO.OCCNCCO.OCCNCCO.OCCNCCO.OCCNCCO [2.5[DEA][RA]]
State at room temperature [1, 11]: Reddish-brown clear liquid | Maximum water content (water dilution stability) [2]: 92.5%

CC1=C(/C=C/C(C)=C/C=C/C(C)=C/C(=O)O)C(C)(C)CCC1.OCCNCCO.OCCNCCO [2[DEA][RA]]
State at room temperature [1, 11]: Reddish-brown clear liquid | Hygroscopicity (DVS) ([3]; 25° C., 0% RH-95% RH-0% RH): certain hygroscopic properties | Crystalline particles by PLM before and after DVS ([3]; room temperature): no crystalline particles | mDSC glass transition temperature ([4]; −25° C. to 25° C.): no glass transition temperature is observed | DSC exothermic or endothermic signals ([4]; −25° C. to 40° C.): no exothermic or endothermic signals | Maximum water content (water dilution stability) [2]: 91.4% | Cooling test results ([5]; test-A1, n-propanol, 50° C.→5° C.): Clear | Cooling test results ([5]; test-A2, n-propanol, 50° C.→−20° C.): Clear | Cooling test results ([5]; test-C1, 1,4-dioxane, 50° C.→5° C.): Clear | Cooling test results ([5]; test-C2, 1,4-dioxane, 50° C.→−20° C., *melting immediately upon taking out): Frozen, yellow opaque* | Cooling test results ([5]; test-D1, DMSO, 50° C.→5° C.): Clear | Liquid nitrogen freezing test result upon rewarming [6]: the sample melted immediately | Anti-solvent addition test results ([7]; test-A, good solvent DMSO, anti-solvent ACN 1.5 mL): Clear | Anti-solvent addition test results ([7]; test-B1, good solvent n-propanol, anti-solvent ACN 1.5 mL): Clear | Anti-solvent addition test results ([7]; test-B2, good solvent n-propanol, anti-solvent n-heptane 1.5 mL): Clear | Anti-solvent addition test results ([7]; test-D1, good solvent THF, anti-solvent ACN 1.5 mL): Clear | Anti-solvent addition test results ([7]; test-E1, good solvent IPA, anti-solvent ACN 1.5 mL): Clear | Solubility in oily medium ([8]; Isopropyl myristate): Insoluble | Solubility in oily medium ([8]; Laurocapram): Insoluble | Solubility in oily medium ([8]; Medium-chain triglyceride): Insoluble | Solubility in oily medium ([8]; Soybean oil): Insoluble | Compatibility of complex with gel matrix [9]: precipitation of yellow solids

CC1=C(/C=C/C(C)=C/C=C/C(C)=C/C(=O)O)C(C)(C)CCC1.OCCNCCO.OCCNCCO.OCCNCCO [3[DEA][RA]]
State at room temperature [1, 11]: Reddish-brown clear liquid | Maximum water content (water dilution stability) [2]: 93.7%

CC1=C(/C=C/C(C)=C/C=C/C(C)=C/C(=O)O)C(C)(C)CCC1.OCCNCCO.OCCNCCO.OCCNCCO.OCCNCCO [4[DEA][RA]]
State at room temperature [1, 11]: Reddish-brown clear liquid | Maximum water content (water dilution stability) [2]: 94.1%

CC1=C(/C=C/C(C)=C/C=C/C(C)=C/C(=O)O)C(C)(C)CCC1.OCCNCCO.OCCNCCO.OCCNCCO.OCCNCCO.OCCNCCO [5[DEA][RA]]
State at room temperature [1, 11]: Reddish-brown clear liquid

CC1=C(/C=C/C(C)=C/C=C/C(C)=C/C(=O)O)C(C)(C)CCC1.OCCNCCO.OCCNCCO.OCCNCCO.OCCNCCO.OCCNCCO.OCCNCCO [6[DEA][RA]]
State at room temperature [1, 11]: Reddish-brown clear liquid

CC1=C(/C=C/C(C)=C/C=C/C(C)=C/C(=O)O)C(C)(C)CCC1.OCCNCCO.OCCNCCO.OCCNCCO.OCCNCCO.OCCNCCO.OCCNCCO.OCCNCCO [7[DEA][RA]]
State at room temperature [1, 11]: Reddish-brown clear liquid

CC1=C(/C=C/C(C)=C/C=C/C(C)=C/C(=O)O)C(C)(C)CCC1.OCCNCCO.OCCNCCO.OCCNCCO.OCCNCCO.OCCNCCO.OCCNCCO.OCCNCCO.OCCNCCO [8[DEA][RA]]
State at room temperature [1, 11]: Reddish-brown clear liquid

CC1=C(/C=C/C(C)=C/C=C/C(C)=C/C(=O)O)C(C)(C)CCC1.OCCN(CCO)CCO.OCCN(CCO)CCO.OCCN(CCO)CCO.OCCN(CCO)CCO.OCCN(CCO)CCO.OCCN(CCO)CCO.OCCN(CCO)CCO.OCCN(CCO)CCO [8[TEA][RA]]
State at room temperature [1, 12]: Reddish-brown clear liquid | State at room temperature ([1]; tretinoin-triethanolamine complexes, molar ratio TEA:RA 7:1 to 10:1, listed as 8 [TEA][RA]): reddish-brown transparent liquid

CC1=C(/C=C/C(C)=C/C=C/C(C)=C/C(=O)O)C(C)(C)CCC1.OCCNCCO.OCCNCCO.OCCNCCO.OCCNCCO.OCCNCCO.OCCNCCO.OCCNCCO.OCCNCCO.OCCNCCO [9[DEA][RA]]
State at room temperature [1, 11]: Reddish-brown clear liquid

CC1=C(/C=C/C(C)=C/C=C/C(C)=C/C(=O)O)C(C)(C)CCC1.OCCN(CCO)CCO.OCCN(CCO)CCO.OCCN(CCO)CCO.OCCN(CCO)CCO.OCCN(CCO)CCO.OCCN(CCO)CCO.OCCN(CCO)CCO.OCCN(CCO)CCO.OCCN(CCO)CCO [9[TEA][RA]]
State at room temperature [1, 12]: Reddish-brown clear liquid

CC1=C(/C=C/C(C)=C/C=C/C(C)=C/C(=O)O)C(C)(C)CCC1.OCCNCCO.OCCNCCO.OCCNCCO.OCCNCCO.OCCNCCO.OCCNCCO.OCCNCCO.OCCNCCO.OCCNCCO.OCCNCCO [10[DEA][RA]]
State at room temperature [1, 11]: Reddish-brown clear liquid

CC1=C(/C=C/C(C)=C/C=C/C(C)=C/C(=O)O)C(C)(C)CCC1.OCCN(CCO)CCO.OCCN(CCO)CCO.OCCN(CCO)CCO.OCCN(CCO)CCO.OCCN(CCO)CCO.OCCN(CCO)CCO.OCCN(CCO)CCO.OCCN(CCO)CCO.OCCN(CCO)CCO.OCCN(CCO)CCO [10[TEA][RA]]
State at room temperature [1, 12]: Reddish-brown clear liquid

CC1=C(/C=C/C(C)=C/C=C/C(C)=C/C(=O)O)C(C)(C)CCC1 [tretinoin]
Solubility in water [10]: extremely insoluble in water
